US10881110B2, “Herbicidal compositions comprising isoxazolo[5,4-b]pyridines” (BASF SE, priority 2014, dated 2021)
“And” between values parts separate entries of the source, which are not always exact repeats. Equal entries are not always repeated. Where two headings read alike, the source gives them in different places.

Legend:
Experiment in all cases: greenhouse post-emergence herbicidal test
ALOMY = type: in vivo, Alopecurus myosuroides; parameters: key to herbicidal activity against ALOMY found: rating on a scale from 0 to 100; conditions: post emergence
Procedure, shortened: (§1)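 Combination activity judged against additive expectation by Colby, E=X+Y−(X·Y/100), from 0–100 damage ratings taken 20 days post-spray. Plants at 1–15 cm in loamy sand (69.9% sand) were sprayed with components formulated as 10% w/w emulsion concentrate in water.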

CONAR = type: in vivo, Convolvulus arvensis; parameters: key: rating on a scale from 0 to 100
Procedure, shortened: as §1

ERICA = type: in vivo, Conyza canadensis; parameters: key to herbicidal activity against ERICA found: rating on a scale from 0 to 100; conditions: post emergence
Procedure, shortened: as §1

[1] = a.i. g/ha: I.1 20.8, B.67 62.5, 20 days after treatment
[2] = a.i. g/ha: I.1 62.5, B.67 62.5, 20 days after treatment

## O=C(O)c1cc(C2CC2)nc2onc(C3CC3)c12 [I.1]
ALOMY; Alopecurus myosuroides, post-emergence, 480 h, I.1 alone 31.25 g/ha a.i., read-out: herbicidal activity against ALOMY found
  pest or weed control at 31.25 g/ha: 0%
ALOMY; Alopecurus myosuroides, post-emergence, 480 h, I.1 31.25 g/ha a.i., read-out: herbicidal activity against ALOMY found
  pest or weed control at 31.25 g/ha: 0%
ALOMY; Alopecurus myosuroides, post-emergence, 480 h, I.1 62.5 g/ha a.i., read-out: herbicidal activity against ALOMY found
  pest or weed control at 62.5 g/ha: 0%
ALOMY; Alopecurus myosuroides, post-emergence, 480 h, I.1 125 g/ha a.i., read-out: herbicidal activity against ALOMY found
  pest or weed control at 125 g/ha: 25%
ALOMY; Alopecurus myosuroides, post-emergence, 480 h, single active, 15.62 g/ha a.i., read-out: herbicidal activity against ALOMY found
  pest or weed control at 15.62 g/ha: 0%
ALOMY; Alopecurus myosuroides, post-emergence, 480 h, single active, 31.25 g/ha a.i., read-out: herbicidal activity against ALOMY found
  pest or weed control at 31.25 g/ha: 0%
ALOMY; Alopecurus myosuroides, post-emergence, 480 h, single active, 62.5 g/ha a.i., read-out: herbicidal activity against ALOMY found
  pest or weed control at 62.5 g/ha: 0%
ALOMY; Alopecurus myosuroides, post-emergence, 480 h, single active, 125 g/ha a.i., read-out: herbicidal activity against ALOMY found
  pest or weed control at 125 g/ha: 25%
ALOMY; I.1 31.25 g/ha, B.95 1 g/ha a.i.
  herbicidal activity against ALOMY found: 0
ALOMY; I.1 62.5 g/ha, B.88 1 g/ha a.i.
  herbicidal activity against ALOMY found: 0
ALOMY; I.1 62.5 g/ha, B.88 2 g/ha a.i.
  herbicidal activity against ALOMY found: 0
ALOMY; I.1 62.5 g/ha, B.89 12.5 g/ha a.i.
  herbicidal activity against ALOMY found: 0
ALOMY; I.1 62.5 g/ha, B.95 1 g/ha a.i.
  herbicidal activity against ALOMY found: 0
ALOMY; a.i. g/ha: I.1 6.9, B.67 62.5, 20 days after treatment
  herbicidal activity against ALOMY found: 0%
ALOMY; [1]
  herbicidal activity against ALOMY found: 0%
ALOMY; [2]
  herbicidal activity against ALOMY found: 0%
ALOMY; application rate a.i.: I.1 250 g/ha, B.193 15 g/ha, alone or as mixture (composition 1.193)
  herbicidal activity against ALOMY found: 45
ALOMY; applied alone at 31.25 g/ha a.i.
  herbicidal activity against ALOMY found: 0
ALOMY; applied alone at 125 g/ha a.i.
  herbicidal activity against ALOMY found: 20 and 25
ALOMY; g/ha a.i.: I.1 31.25, B.52 2.5, mixture 31.25+2.5
  herbicidal activity against ALOMY found: 25
ALOMY; g/ha a.i.: I.1 62.5, B.20 4, mixture 62.5+4
  herbicidal activity against ALOMY found: 25
ALOMY; g/ha a.i.: I.1 62.5, B.52 2.5, mixture 62.5+2.5
  herbicidal activity against ALOMY found: 25
ALOMY; g/ha a.i.: I.1 125, B.20 2, mixture 125+2
  herbicidal activity against ALOMY found: 30
ALOMY; g/ha a.i.: I.1 125, B.20 4, mixture 125+4
  herbicidal activity against ALOMY found: 30
ALOMY; g/ha a.i.: I.1 125, B.24 1, mixture 125+1
  herbicidal activity against ALOMY found: 30
ALOMY; g/ha a.i.: I.1 125, B.24 2, mixture 125+2
  herbicidal activity against ALOMY found: 30
ALOMY; g/ha a.i.: I.1 125, B.52 2.5, mixture 125+2.5
  herbicidal activity against ALOMY found: 30
ALOMY; g/ha a.i.: I.1 125, B.63 0.5, mixture 125+0.5
  herbicidal activity against ALOMY found: 30
CONAR; 31.25 g/ha a.i.
  herbicidal activity against CONAR found: 40
CONAR; 62.5 g/ha a.i.
  herbicidal activity against CONAR found: 60
CONAR; 125 g/ha a.i.
  herbicidal activity against CONAR found: 70
CONAR; 6 days after treatment, g/ha a.i.: I.1 31.25, naptalam 50, mixture 31.25+50
  herbicidal activity against CONAR found: 5
CONAR; 6 days after treatment, g/ha a.i.: I.1 31.25, naptalam 100, mixture 31.25+100
  herbicidal activity against CONAR found: 5
CONAR; 6 days after treatment, g/ha a.i.: I.1 31.25, naptalam 200, mixture 31.25+200
  herbicidal activity against CONAR found: 5
CONAR; 6 days after treatment, g/ha a.i.: I.1 62.5, B.96 140, mixture 62.5+140
  herbicidal activity against CONAR found: 65
CONAR; 6 days after treatment, g/ha a.i.: I.1 125, naptalam 100, mixture 125+100
  herbicidal activity against CONAR found: 70
CONAR; a.i. g/ha: I.1 7.8, B.67 125, 20 days after treatment
  herbicidal activity against CONAR found: 0%
CONAR; a.i. g/ha: I.1 15.6, B.67 125, 20 days after treatment
  herbicidal activity against CONAR found: 0%
CONAR; [1]
  herbicidal activity against CONAR found: 0%
CONAR; a.i. g/ha: I.1 31.25, B.67 125, 20 days after treatment
  herbicidal activity against CONAR found: 0%
CONAR; a.i. g/ha: I.1 31.25, B.69 25, 20 days after treatment
  herbicidal activity against CONAR found: 70%
CONAR; [2]
  herbicidal activity against CONAR found: 25%
CONAR; a.i. g/ha: I.1 62.5, B.67 125, 20 days after treatment
  herbicidal activity against CONAR found: 0%
CONAR; a.i. g/ha: I.1 62.5, B.69 25, 20 days after treatment
  herbicidal activity against CONAR found: 65%
CONAR; a.i. g/ha: I.1 62.5, B.76 225, 20 days after treatment
  herbicidal activity against CONAR found: 65%
CONAR; a.i. g/ha: I.1 62.5, B.77 75, 20 days after treatment
  herbicidal activity against CONAR found: 25%
CONAR; a.i. g/ha: I.1 62.5, B.80 250, 20 days after treatment
  herbicidal activity against CONAR found: 25%
CONAR; application rate a.i.: I.1 31.25 g/ha, B.139 (pyroxasulfone) 12.5 g/ha, alone or as mixture (composition 1.139)
  herbicidal activity against CONAR found: 30
CONAR; application rate a.i.: I.1 31.25 g/ha, B.139 (pyroxasulfone) 25 g/ha, alone or as mixture (composition 1.139)
  herbicidal activity against CONAR found: 30
CONAR; application rate a.i.: I.1 62.5 g/ha, B.30 (imazamox) 3.75 g/ha, alone or as mixture (composition 1.030)
  herbicidal activity against CONAR found: 25
CONAR; application rate a.i.: I.1 62.5 g/ha, B.84 (paraquat-dichloride) 17.5 g/ha, alone or as mixture (composition 1.84)
  herbicidal activity against CONAR found: 45
CONAR; application rate a.i.: I.1 125 g/ha, B.113 (glyphosate) 33.75 g/ha, alone or as mixture (composition 1.113)
  herbicidal activity against CONAR found: 80
ERICA; Erigeron canadensis, post-emergence, 480 h, I.1 alone 31.25 g/ha a.i., read-out: herbicidal activity against ERICA found
  pest or weed control at 31.25 g/ha: 70%
ERICA; Erigeron canadensis, post-emergence, 480 h, I.1 alone 62.5 g/ha a.i., read-out: herbicidal activity against ERICA found
  pest or weed control at 62.5 g/ha: 75%
ERICA; Erigeron canadensis, post-emergence, 480 h, I.1 alone 125 g/ha a.i., read-out: herbicidal activity against ERICA found
  pest or weed control at 125 g/ha: 75%
ERICA; Erigeron canadensis, post-emergence, 480 h, I.1 31.25 g/ha a.i., read-out: herbicidal activity against ERICA found
  pest or weed control at 31.25 g/ha: 50%
ERICA; Erigeron canadensis, post-emergence, 480 h, I.1 62.5 g/ha a.i., read-out: herbicidal activity against ERICA found
  pest or weed control at 62.5 g/ha: 70%
ERICA; Erigeron canadensis, post-emergence, 480 h, I.1 125 g/ha a.i., read-out: herbicidal activity against ERICA found
  pest or weed control at 125 g/ha: 65%
ERICA; Erigeron canadensis, post-emergence, 480 h, single active, 15.62 g/ha a.i., read-out: herbicidal activity against ERICA found
  pest or weed control at 15.62 g/ha: 0%
ERICA; 6 days after treatment, g/ha a.i.: I.1 125, naptalam 50, mixture 125+50
  herbicidal activity against ERICA found: 70
ERICA; I.1 15.62 g/ha, B.95 1 g/ha a.i.
  herbicidal activity against ERICA found: 0
ERICA; I.1 15.62 g/ha, B.95 2 g/ha a.i.
  herbicidal activity against ERICA found: 0
